Results taken from patent publication US12226507B2, “Use of dianhydrohexitol in oral and dental care to reduce the development of bacterial strains” (ROQUETTE FRERES, priority 2017, dated 2025).

How the values were obtained:
Format in all cases: cell-based
Actinomyces oris = assay: Bacterial growth of Actinomyces oris in the presence of polyols; details: aerobic conditions, FIG. 6
Experimental: (§1) The growth of these strains was then measured in the presence of isosorbide, maltitol, xylitol, allulose, sorbitol powder and dextrose monohydrate in an unrefreshed culture medium, incubated at 37° C. for 48 hours or 72 hours under aerobic or anaerobic conditions. The growths were measured by bacterial counting on solid medium. The results are expressed in Log 10 (CFU/ml). The culture media used are the Bacto Brain Heart Infusion (ref. 237500-BD (BHI)) and Difco™ Brain Heart Infusion Agar (ref. 241830-BD (BHIa)) culture media.

Lactobacillus gasseri = assay: Bacterial growth of Lactobacillus gasseri in the presence of polyols; details: anaerobic conditions, FIG. 3
Experimental: as §1

Streptococcus mutans [1] = assay: Bacterial growth and biofilm of Streptococcus mutans strain from a decayed tooth, in the presence of polyols; details: FIG. 2
Experimental: as §1, with “incubated at 37° C. for 48 hours or 72 hours under aerobic or anaerobic” left out

oral bacterial strains = assay: Growth of the oral bacterial strains overall (summary of all strains tested)
Experimental: as §1

Actinomyces naeslundii = assay: Bacterial growth of Actinomyces naeslundii in the presence of polyols; details: for bacterial population: FIG. 4 as printed
Experimental: as §1

Streptococcus mutans [2] = assay: Bacterial growth of Streptococcus mutans strain from a healthy tooth, in the presence of polyols, counting on solid medium; details: aerobic conditions, FIG. 1
Experimental: as §1

| Structure (SMILES) | bacterial growth (Actinomyces oris) | bacterial growth (Lactobacillus gasseri; T=24 hours) | kind of effect, populations beyond 24 hours (Lactobacillus gasseri; beyond 24 hours) | bacterial growth (Streptococcus mutans [1]; anaerobic conditions) | biofilm formed (Streptococcus mutans [1]; anaerobic conditions, after 96 hours of incubation) | bacterial growth (Streptococcus mutans [1]; strain from a decayed tooth) | growth of the bacterial strains, all cases (oral bacterial strains; all strains and conditions tested) | level of performance relative to xylitol or sorbitol (oral bacterial strains; comparison with polyols of commercial toothpastes) | bacterial growth (Actinomyces naeslundii; aerobic conditions, FIG. 5) | bacterial population from T=40 hours (Actinomyces naeslundii; aerobic conditions, from T=40 hours, FIG. 5) | kind of effect on the bacterial population (Actinomyces naeslundii; anaerobic conditions) | bacterial population (Actinomyces naeslundii; anaerobic conditions) | bacterial population after 24 hours (Streptococcus mutans [2]) | kind of effect on the bacterial population (Streptococcus mutans [2]) | bacterial growth (Streptococcus mutans [2]; T=24 hours) |
| --- | --- | --- | --- | --- | --- | --- | --- | --- | --- | --- | --- | --- | --- | --- | --- |
| O=C(CO)C(O)C(O)C(O)CO (stereo not shown) [allulose] | slowed relative to the other polyols tested | – | – | – | – | – | – | – | – | – | – | – | – | – | – |
| O[C@@H]1CO[C@H]2[C@@H]1OC[C@@H]2O [isosorbide, 1,4:3,6-dianhydrosorbitol] | decreases greatly over time in the presence of isosorbide, then stabilizes after 24 hours | remains absent | inhibitory effect | varies little | biofilm formed in the absence of isosorbide is much more pronounced than in the presence of isosorbide | Very slowed growth | very significant decrease | even higher than that observed with xylitol or sorbitol | remains low relative to the other polyols | substantial decrease | bactericidal effect | falls constantly until it disappears completely | declines slightly | bacteriostatic effect | remain absent |
| OC[C@@H](O)[C@H](O)[C@@H](O)CO [xylitol, reference compound] | slowed relative to the other polyols tested | – | – | – | – | – | – | – | appears to further curb the bacterial growth than the other polyols tested | – | – | remains stable | – | – | – |
